Measured values reported in ChEMBL document CHEMBL3988442, “University of Dundee, Small-Polar-MMV Screening Library” (2021).
Where “and” joins values, the source holds several entries; their conditions need not be identical. Equal entries are not always repeated.

Test system: Wolbachia pipientis
Test: Anti-Wolbachia Cell-Based Screen
Assay type: functional
Settings: for IC50: Wolbachia pipientis

SMILES | IC50 [µM] | pIC50
Cc1nn(C)c(C)c1C(=O)NCc1ccnc(OCC(F)(F)F)c1 | > 10 | 
COCCCN1Cc2cccc(NC(=O)C(C)(C)C)c2C1 | > 10 | 
CCC(CC)C(O)CNC(=O)Nc1cc(C)nn1C (stereo not given) | > 10 | 
O=C(O)C(F)(F)F.O=C(O)c1c(-c2cccnc2)ncc2c1CCN(CC1CCOC1)C2 (stereo not given) | 7.49 | < 5
CC(C)N1CC(NC(=O)c2ccc(Cl)s2)CC1=O (stereo not given) | > 10 | 
Cn1c(=O)n(C)c2cc(C3SCC(=O)Nc4ccsc43)ccc21 (stereo not given) | 2.44 | 5.481
COc1cc(CNC(=O)c2c(C)noc2C)ccn1 | > 10 | 
CC(CNC1CCN(c2ccccn2)CC1)Oc1ccc(F)cc1 (stereo not given) | > 10 | 
Cc1cc(CN2CCCC2)cc(Oc2nc(C)cnc2C)c1 | > 10 | 
Cn1cc(CN2C[C@@H]3CCC[C@@H](OCc4cccnc4)[C@@H]3C2)cn1 | > 10 | 
CNC(=O)c1cn[nH]c1C1(C)CCCN(Cc2nccn2C(C)C)C1 (stereo not given) | > 10 | 
N#Cc1cc(F)c(NCc2ccc(F)cc2)c(F)c1 | > 10 | 
CC(C)Cn1ncc2cc(C(=O)N(C)CCc3ccccc3)cnc21 | > 10 | 
O=C(CCc1ccccc1Cl)NS(=O)(=O)c1ccc2c(c1)OCCO2 | > 10 | 
Cc1cc(NCCCNc2cccnc2)n2nc(C)c(C)c2n1 | > 10 | 5.158
Cc1noc(-c2ccnc(Oc3ccc(CN4CCCC4)cc3C)c2)n1 |  | 5.704 and 5.368
COc1ncccc1C(=O)N1CCc2c(ncnc2N2CCOCC2)C1 | > 10 | 
CNc1ncc(CN(C)c2ncnc3onc(C)c23)cn1 | > 10 | 

More lines, now with the values ahead:

IC50 [µM] | pIC50 | SMILES
> 10 |  | COc1ccc(C(C)N(C)Cc2c(C(C)C)[nH]c3ncccc23)cc1 (stereo not given)
2.9 | 5.592 | Cc1nn(C)c2nc(N(Cc3nccs3)C3CC3)sc12
> 10 |  | CC(=O)N1CCN(C(=O)CCn2c(C)nc3ccccc3c2=O)CC1
> 10 |  | Cc1nnc(N2CCCC3(CN(Cc4nccs4)CCO3)C2)o1 (stereo not given)
> 10 |  | CCOc1nnc(CN2CCN(CCOC)CC2)s1
0.156 | 7.075 | Cc1nn(C)c2nc(N3CCCCC3c3nccs3)sc12 (stereo not given)
5.15 | 5.338 | CCC(CC)C(=O)N1CCCc2c(cnn2C)C1
8.83 | 5.079 | COCC(=O)Nc1ccc(-c2noc([C@@H]3CCCN3C(C)C)n2)cn1
3.56 | 5.243 | O=C(CNC(=O)c1ccc(Cl)cc1)Nc1nccs1
4.91 | 5.065 | CCc1nc(C)sc1CN1CCc2[nH]nc(-c3ccc(F)c(F)c3)c2C1
6.09 | 5.24 | CCOC(=O)c1sc2ccsc2c1CNC(=O)C(C)(C)C#N
5 | 5.124 | Cc1ncc(CN(C)Cn2nc(-c3ccccc3)oc2=O)s1
3.83 | 5.368 | Cc1c[nH]c(CN2CCOC(c3ccc(Cl)c(Cl)c3)C2)c(C)c1=O (stereo not given)
4.89 | 5.181 | Cc1ccc(CSc2nc(N)cc(NCCC(=O)N3CCCC3)n2)cc1
3 | 5.528 | COc1ccc(C(C#N)NC(=O)Cc2ccc(F)c(F)c2)c(OC)c1 (stereo not given)
2.63 | 5.539 | Cc1c[nH]c(CN2CCOC(c3ccc(Cl)cc3)C2)c(C)c1=O (stereo not given)
9.95 | < 5 | Cc1nc2cc(-c3nccn3C)nn2c(N2CCCC2)c1C
7.14 | 5.095 | CC(C)N1c2sc(-c3ccsc3)nc2CC1C(=O)NC1CCCC1 (stereo not given)
1.92 | 5.613 | CCc1cc(N(C)Cc2nonc2C)nc(N(C)C)n1
3.11 | 5.66 | COCc1noc(-c2ccc(N(C)Cc3ncccc3C)nc2)n1
2.54 | 5.592 | CCC(Nc1nc(C)nc2onc(C)c12)c1nc(C)c(C)s1 (stereo not given)
3.17 | 5.454 | c1cnn(CC2CCCN2c2ncnc3ccsc23)c1 (stereo not given)
1.82 | 5.818 | Cc1nn(C)c2nc(N3CCCC3c3nccs3)sc12 (stereo not given)
9.16 | 5.105 | CCc1ccc(CN(C)Cc2nc(COc3ccccc3)no2)nc1
